Data on 58 sequences can be found in the OligoGym collection.

These antisense oligonucleotides have a phosphorothioate backbone; sugars and methylation of C are not fully specified. Bounds are passed on as bounds.
Also: test concentration or dose not given here.

One series concerns the target GNA13. The note with it: ASO.
With AAGCAAGTCTGTCTTGTT, the remaining target (mRNA or protein) (fraction of control) came out at 0.79.
On the same count and under the same terms, as for TCGAAGTCCTGCCCGTGG, the figure is no less than 1; as for CTTGCGTTGCTGCTCGGC, 0.36; as for GCCTCGCCACTCGTCAGC, 0.5.
The same measure, in the same setting: as for ACCCAGTTGAAATTCTCG, the figure is 0.43; as for ATGTTCTCCGTGTTGATA, 0.67.

The target of the next series is E2F1. The note with it: ASO.
Sequence GCCTTGTGGGACCCCACGAG yielded a remaining target (mRNA or protein) (fraction of control) of 0.83.
Same read-out and setting: as for GCCAGGCGCTGGCTGTCAGT, the figure is 0.69; as for CACCTTTTCCTGGATGGCGG, 0.47; as for ACCTCGGCAGCCCAGTTCAG, no less than 1.
In turn, TCCTGCAGCTGTCGGAGGTC showed a remaining target (mRNA or protein) (fraction of control) of 0.8.
On the same count and under the same terms, as for CGAGCAGGGCCTCCAGCGCC, the figure is 0.9; as for TCAGCCGAGTGGCTCAGCAG, 0.91; as for TACTCTGGAAACCCTGGTCC, 0.75.
On the same count and under the same terms, as for GTGGTCAGATTCAGTGAGGT, the figure is 0.43.
The same measure, in the same setting: as for GCCGACGCCCACTGTGGTGT, the figure is 0.45.
Sequence AAGTGGTAGTCGAGGGCCTC had a remaining target (mRNA or protein) (fraction of control) of 0.77.
The same measure, in the same setting: as for CAGGCGGCGGCGGCGGCGCG, the figure is 0.82.
Still for that read-out and setting: as for GCAGGCGCTTCAGACACTGC, the figure is 0.3.
On the same count and under the same terms, as for CTCCCTCACTTTCCCAATAA, the figure is 0.71; as for GGTCCCTCCAAGCCCTGTCA, 0.2; as for GGTCCAGCCTCCGCTTCACC, 0.36.
CCTCGGCGAGGGCTCGATCC displayed a remaining target (mRNA or protein) (fraction of control) of 0.8.
Regarding GGAGGACGGCCAGGGACAGG, the remaining target (mRNA or protein) (fraction of control) amounted to 0.7.
Sequence TGCACACACAGAGGTGTATG registered a remaining target (mRNA or protein) (fraction of control) of 0.27.
As to GAACTCCTCAGGGAGGAGGC, the remaining target (mRNA or protein) (fraction of control) was determined as 0.59.
The same measure, in the same setting: as for CCCATGGCTGTCAGTCAGTC, the figure is no less than 1; as for TGTTAGGAAGCAAATCAAAG, 0.74.
Same read-out and setting: as for TTTGATCACCATAACCATCT, the figure is 0.08; as for GGTCCTGGGTCAACCCCTCA, 0.62; as for CACCCAGGCCTCAGTTCCTT, 0.92.
The same measure, in the same setting: as for CTTCATTCCCCGGTACATGC, the figure is 0.72; as for TTTAACGTCATCAAAATATT, 0.93.
Take GTGACACTATGGTGGCAGAG: the remaining target (mRNA or protein) (fraction of control) came to 0.75.
The same measure, in the same setting: as for TGGAGAGGGCCCACCCCACC, the figure is 0.62.
The sequence CACAGGAAAACATCGATCGG showed a remaining target (mRNA or protein) (fraction of control) of 0.9.
As to GCGGCCCGGGTGACAGGCGG, the remaining target (mRNA or protein) (fraction of control) stood at 0.32.
The same measure, in the same setting: as for GCTCCAGGCTGAGTAGAGAC, the figure is 0.73.
On the same count and under the same terms, as for CACCGTCCTACACGCCCAGC, the figure is 0.44.
Same read-out and setting: as for TGGCAGAGTCAGTGGCCCTG, the figure is 0.94; as for CAGCTGCTGCTCGCTCTCCT, 0.63; as for TCTGCGAGGAGTCGAGCAGC, 0.79.
Sequence TATTAAAACCAAAGCAGGAG gave a remaining target (mRNA or protein) (fraction of control) of 0.69.
Regarding GGCCATGACGCTCACGGCCC, the remaining target (mRNA or protein) (fraction of control) was 0.76.
The sequence GGACTTCTTGGCAATGAGCT gave a remaining target (mRNA or protein) (fraction of control) of 0.65.
Still for that read-out and setting: as for CGGCGGGCGGCCGAGCGCGG, the figure is 0.83; as for GAGTCGGCCGCCACCAGCGG, 0.27; as for AAGCCCTGTCAGAAATCCAG, 0.58.
Consider CCGCTGCCTGCAAAGTCCCG, for which the remaining target (mRNA or protein) (fraction of control) amounted to 0.92.
On the same count and under the same terms, as for GAGGAGGCCGGAGAAGTCCT, the figure is 0.75.
On the same count and under the same terms, as for GGTATAAATTAAATGTTTCC, the figure is 0.62; as for ATGAGCTGGATGCCCTCAAG, 0.56.
Take GGCCGAAAGTGCAGTTAGAG: the remaining target (mRNA or protein) (fraction of control) was no less than 1.
On the same count and under the same terms, as for TAGCCAGACCCCAGAGCTAG, the figure is 0.46.
Still for that read-out and setting: as for CTCAGAAGTGACCTCCTGGG, the figure is 0.73.
On to CGCAGCTGCGTAGTACAGAT, for which the remaining target (mRNA or protein) (fraction of control) is no less than 1.
The sequence GACCACAGGGTCTGGGCTGG gave a remaining target (mRNA or protein) (fraction of control) of 0.62.
Regarding GGCCGCGGCGCACTGGGTGT, the remaining target (mRNA or protein) (fraction of control) turned out to be 0.79.
